In ChEMBL document CHEMBL1134157, “General synthesis of alpha-substituted 3-bisaryloxy propionic acid derivatives as specific MMP inhibitors” (Bioorg Med Chem Lett, 2001):

Legend:
[1] = Metabolic bioavailability was determined; assay type: ADME, organism-based; conditions: in vivo
Stromelysin-1 = Stromelysin-1 (Homo sapiens, UniProt P08254); experiment: Inhibition of Matrix metalloprotease-3
[2] = target: Matrix metalloproteinase-9 (Homo sapiens, UniProt P14780); experiment: Inhibition of Matrix metalloprotease-9
Chain of Matrix metalloproteinase-9 (P14780 whole entry): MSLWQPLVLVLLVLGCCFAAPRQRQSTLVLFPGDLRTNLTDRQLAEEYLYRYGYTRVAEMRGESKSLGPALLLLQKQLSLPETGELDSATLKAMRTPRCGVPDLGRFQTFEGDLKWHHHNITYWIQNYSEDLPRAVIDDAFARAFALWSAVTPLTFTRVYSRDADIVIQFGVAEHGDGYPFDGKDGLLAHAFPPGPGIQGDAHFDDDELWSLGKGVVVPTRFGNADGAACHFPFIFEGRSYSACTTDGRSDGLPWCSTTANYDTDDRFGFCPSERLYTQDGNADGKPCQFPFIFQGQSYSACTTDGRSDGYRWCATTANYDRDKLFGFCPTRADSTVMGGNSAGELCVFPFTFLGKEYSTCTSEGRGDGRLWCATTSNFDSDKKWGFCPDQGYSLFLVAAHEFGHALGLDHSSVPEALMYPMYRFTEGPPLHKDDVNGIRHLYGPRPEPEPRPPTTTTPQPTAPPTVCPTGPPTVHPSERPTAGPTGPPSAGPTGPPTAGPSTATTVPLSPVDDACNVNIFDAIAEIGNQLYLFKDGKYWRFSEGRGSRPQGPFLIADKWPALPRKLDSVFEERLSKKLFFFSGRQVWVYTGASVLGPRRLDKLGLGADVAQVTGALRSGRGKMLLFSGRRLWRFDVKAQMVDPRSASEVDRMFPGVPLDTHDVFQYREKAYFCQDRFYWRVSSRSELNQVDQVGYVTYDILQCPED

[3] = target: 72 kDa type IV collagenase (Homo sapiens, UniProt P08253); experiment: Inhibition of Matrix metalloprotease-2
Chain of 72 kDa type IV collagenase (P08253 whole entry): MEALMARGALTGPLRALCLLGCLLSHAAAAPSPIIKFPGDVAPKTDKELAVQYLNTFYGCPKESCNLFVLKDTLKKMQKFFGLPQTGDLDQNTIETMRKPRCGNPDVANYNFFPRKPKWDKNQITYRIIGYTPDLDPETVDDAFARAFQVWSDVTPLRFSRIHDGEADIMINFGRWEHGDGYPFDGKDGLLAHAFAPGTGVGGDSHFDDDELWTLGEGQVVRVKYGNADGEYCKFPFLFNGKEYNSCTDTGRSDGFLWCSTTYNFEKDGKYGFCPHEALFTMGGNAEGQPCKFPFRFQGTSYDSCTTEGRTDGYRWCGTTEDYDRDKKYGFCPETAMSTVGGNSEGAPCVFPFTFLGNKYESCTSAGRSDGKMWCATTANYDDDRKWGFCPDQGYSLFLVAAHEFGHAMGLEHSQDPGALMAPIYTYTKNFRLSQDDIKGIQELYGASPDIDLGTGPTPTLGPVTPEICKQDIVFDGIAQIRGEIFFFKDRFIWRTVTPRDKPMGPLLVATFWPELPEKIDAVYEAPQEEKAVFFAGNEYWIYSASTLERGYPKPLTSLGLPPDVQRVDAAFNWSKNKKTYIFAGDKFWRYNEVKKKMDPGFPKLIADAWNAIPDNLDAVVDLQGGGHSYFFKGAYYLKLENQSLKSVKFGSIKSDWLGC

Collagenase 3 = Collagenase 3 (Homo sapiens, UniProt P45452); experiment: Inhibition of Matrix metalloprotease-13
Interstitial collagenase [4] = target: T1, Interstitial collagenase (Homo sapiens, UniProt P03956); experiment: Inhibition of Matrix metalloprotease-1
T1 sequence (P03956 whole entry): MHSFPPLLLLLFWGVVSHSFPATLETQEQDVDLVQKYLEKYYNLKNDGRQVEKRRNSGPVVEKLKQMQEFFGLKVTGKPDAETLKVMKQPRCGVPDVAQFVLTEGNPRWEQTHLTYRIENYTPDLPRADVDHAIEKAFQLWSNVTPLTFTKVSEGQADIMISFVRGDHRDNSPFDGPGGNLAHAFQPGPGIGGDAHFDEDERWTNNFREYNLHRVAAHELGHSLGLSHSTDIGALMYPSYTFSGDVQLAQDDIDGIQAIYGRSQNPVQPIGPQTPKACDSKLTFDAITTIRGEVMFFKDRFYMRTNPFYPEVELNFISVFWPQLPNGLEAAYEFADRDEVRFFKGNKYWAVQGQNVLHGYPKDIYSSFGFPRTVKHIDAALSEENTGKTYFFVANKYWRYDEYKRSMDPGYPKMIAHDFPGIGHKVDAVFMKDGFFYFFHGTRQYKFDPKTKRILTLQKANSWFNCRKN

Homo sapiens = experiment: […] absorption in Caco-2 cell line monolayers was determined; assay type: ADME
Interstitial collagenase [5] = target: T1, Interstitial collagenase; experiment: Inhibition ofMatrix metalloprotease-1

Chain of Stromelysin-1 (P08254 whole entry): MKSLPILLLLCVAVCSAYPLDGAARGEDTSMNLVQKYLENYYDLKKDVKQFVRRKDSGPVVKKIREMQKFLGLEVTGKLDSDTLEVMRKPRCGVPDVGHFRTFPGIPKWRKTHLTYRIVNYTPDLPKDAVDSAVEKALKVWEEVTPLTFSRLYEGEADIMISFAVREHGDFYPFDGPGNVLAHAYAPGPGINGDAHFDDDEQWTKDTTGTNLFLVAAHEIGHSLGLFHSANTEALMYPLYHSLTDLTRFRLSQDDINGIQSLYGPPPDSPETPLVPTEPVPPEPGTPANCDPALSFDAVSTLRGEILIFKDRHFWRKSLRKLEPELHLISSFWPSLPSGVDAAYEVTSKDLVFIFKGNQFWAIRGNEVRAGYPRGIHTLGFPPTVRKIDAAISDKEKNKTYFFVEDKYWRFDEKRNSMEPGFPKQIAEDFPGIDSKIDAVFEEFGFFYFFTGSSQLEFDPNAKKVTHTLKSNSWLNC

Structure (SMILES) | MF [1] | IC50 (Stromelysin-1) | IC50 [2] | IC50 [3] | IC50 (Collagenase 3) | IC50 (Interstitial collagenase [4]) | A (Homo sapiens) | IC50 (Interstitial collagenase [5])
O=C(NO)C(CCn1nnc2ccccc2c1=O)COCCc1ccc(-c2ccc(Cl)cc2)cc1 (stereo not drawn) | 23% | 4.3 nM | 3.6 nM | 25 nM | 67 nM |  |  | 
O=C(NO)C(CCn1c(=O)[nH]c2ccccc2c1=O)COc1ccc(-c2ccccc2)cc1 (stereo not drawn) | 52% | 69 nM | 25 nM | 24 nM | 65 nM |  |  | 
O=C(NO)C(CCN1C(=O)c2ccccc2C1=O)COc1ccc(-c2ccccc2)cc1 (stereo not drawn) |  | 16 nM | 5 nM | 3 nM | 7 nM | 768 nM |  | 
O=C(NO)C(CCn1ncc2ccccc2c1=O)COc1ccc(-c2ccccc2)cc1 (stereo not drawn) | 13% | 62 nM | 33 nM | 6 nM | 101 nM | > 10000 nM |  | 
O=C(NO)C(CCN1C(=O)c2ccccc2S1(=O)=O)COc1ccc(-c2ccccc2)cc1 (stereo not drawn) | 30% | 23 nM | 16 nM | 7 nM | 42 nM | > 100000 nM |  | 
O=C(NO)C(CCn1nnc2ccccc2c1=O)COc1ccc(-c2ccc(Cl)cc2)cc1 (stereo not drawn) | 35% | 3.2 nM | 0.6 nM | 0.1 nM | 0.016 nM | 74 nM | 75% | 
N#Cc1ccc(-c2ccc(OCC(CCn3nnc4ccccc4c3=O)C(=O)NO)cc2)cc1 (stereo not drawn) | 42% | 1.1 nM | 0.6 nM | 0.4 nM | 0.6 nM | 116 nM | 96% | 
O=C(NO)C(CCCN1C(=O)c2ccccc2C1=O)COc1ccc(-c2ccccc2)cc1 (stereo not drawn) |  | 313 nM | 221 nM | 82 nM |  | > 1000 nM |  | 
CN1C(=O)N(CCC(COc2ccc(-c3ccccc3)cc2)C(=O)NO)C(=O)C1(C)C (stereo not drawn) | 17% | 71 nM | 199 nM | 36 nM | 84 nM |  |  | > 1000 nM
O=C(NO)C(CCn1nnc2ccccc2c1=O)COc1ccc(-c2ccccc2)cc1 (stereo not drawn) | 29% | 5 nM | 1 nM | 0.5 nM | 3 nM | 31 nM | 80% | 
N#Cc1ccc(-c2ccc(OCCC(=O)NO)cc2)cc1 |  | 47 nM | 655 nM | 49 nM | 64 nM | > 10 nM |  | 
